From patent US7033598B2, “Methods and apparatus for enhanced and controlled delivery of a biologically active agent into the central nervous system of a mammal” (Intrabrain International N.V., priority 1995, dated 2006)

Details: transnasal iontophoresis +3.0 mA, 60 minutes; exsanguinated rabbits
Description: The drug was administered by two nasal electrodes that were each deep inserted in the nasal passages. The receptor electrode was positioned at the back of the animal's head. The animal was prior to delivery exsanguinated so that drug transport via the systemic compartment to the brain cannot occur.
The receptor electrode used in the experiments was saturated with a 0.9% NaCl solution. The iontophoresis apparatus used in these experiment was an Endomed 581 (Enraf Nonius, Delft, The Netherlands) iontophoresis device.
Seven of the nine animals were treated “actively” by means of transnasal iontophoresis. A medium frequency, interrupted direct current with a strength of +3.0 mA was applied to the electrodes immediately after the exsanguination was completed. The remaining two animals functioned as controls of the method and no current was supplied to their electrodes. The experiment lasted 60 minutes.

Cl.Nc1c2c(nc3ccccc13)CCCC2.O [Tacrine hydrochloride, 9-amino-1,2,3,4-tetrahydroacridine hydrochloride monohydrate]
migration distance under the applied electric field: 5-6 cm
